Measured values as given in patent publication US20080064726A1, “Pyrrolidine Derivatives” (priority 2004, published 2008).
Read-outs that look alike come from different tables or passages of the source.

Legend:
[1] = molecular target: T1, DPP-IV purified from pig kidney (Sus scrofa, UniProt P22411); assay: Test for determination of DPP-IV inhibitory activity (Gly-Pro-AMC fluorescence); type: biochemical; settings: room temperature, 60 minutes, 0.05 mM Gly-Pro-AMC
T1 construct: DPP-rIV purified from pig kidney (Sigma); purchased Sigma; host or cells: pig kidney tissue
Protocol: Procedure of DPP-IV activity measurement is as follows. The reaction was performed in a 96-well plate.
Reaction solutions (100 μl/well) obtained by adding a test substance at various concentrations to a solution containing 50 mM of Tris HCl, 150 mM of sodium chloride, a 0.1% triton X-100, 0.3 mU/mI of DPP-rIV purified from pig kidney (Sigma), and 0.05 mM of Gly-Pro-AMC (Bachem) were incubated at a room temperature for 60 minutes, and then fluorescence intensities (Excitation: 355 nm, Emission: 460 nm) of the reaction solutions were measured (ARVO, Perkin Elmer). The data of 3 Wells under the same conditions were averaged.
The inhibition in the test group, relative to the solvent-added group was calculated, and the IC50 value thereof was obtained through logistic analysis.

PK test in rats = type: in vivo; settings: for BA, compound measured = compound tested / AUC(0-inf): male SD rats; for BA, compound measured = compound tested: oral 3 mg/kg vs intravenous 1 mg/kg; for AUC(0-inf): rat, oral 3 mg/kg, plasma, read-out: AUC0→∞, compound measured = compound tested
Protocol: Each three animals were used for each point. Plasma was collected from the blood obtained by such a blood collection and concentration of the compound in plasma was measured using LC/MS/MS (2695, Waters and TSQ Quantum, ThermoFinnigan).
On the basis of concentration of the compound in the plasma determined by the measurement, an area under curve (AUC) of the drug concentration in plasma vs. time was calculated and, from the ratio of AUC by oral administration to AUC by intravenous injection, bioavailability (BA) was calculated. With regard to the BA value by administration of the compound of the present invention, each of concentrations in plasma of the compound X and the compound of the present invention was calculated.

[2] = PK test in cynomolgus monkey; type: in vivo; settings: male cynomolgus monkeys; for BA, compound measured = compound tested: oral 3 mg/kg vs intravenous 1 mg/kg, monohydrochloride
Protocol: Male cynomolgus monkeys of four year old (K. K. Cary; the country of origin: Vietnam) were fasted for 16 hours before administration (feed was given after 4 hours from administration), a test compound dissolved in distilled water was orally administered at a dose of 3 mg/kg and blood was collected from forearm cephalic vein after 0.25, 0.5, 1, 2, 4, 8 and 24 hours from administration of the compound. In addition, cynomolgus monkeys to which no drug was administered for 7 days after the oral administration were fasted during 16 hours before administration (feed was given after 4 hours from administration), a test compound dissolved in distilled water was administered at the dose of 1 mg/kg from forearm cephalic vein and blood was collected from the forearm cephalic vein after 0.1, 0.25, 0.5, 1, 2, 4, 8 and 24 hours from administration of the compound. For each of the administrations, three animals were used. Plasma was collected by centrifugal separation of the blood obtained by such a blood collection and concentration of the compound in the plasma was measured by LC/MS/MS (2695, Waters and TSQ Quantum, ThermoFinnigan).

plasma DPP-IV activity = molecular target: T2, plasma DPP-IV activity (Mus musculus, UniProt P28843); assay: Test for DPP-IV inhibiting activity duration in mice (plasma DPP-IV activity after oral administration); type: in vivo; settings: male ICR mice, 10 mg/kg oral
T2 construct: from tissue; host or cells: plasma of male ICR mice after oral dosing
Protocol: Male ICR mice (Nippon SLC) were grouped into a test group and a control group of 5 subjects each. A test compound (10 mg/kg) was dissolved in purified water, and orally administered. Purified water alone was orally administered to the mice of the control group. One half and 12 hours after the administration, the blood was collected from each mouse through the orbital venous plexus thereof. The collected blood was immediately centrifuged to isolate the plasma, and the DPP-IV activity of the plasma was measured.
The process of plasma DPP-IV activity determination was as follows: The reaction was performed in a 96-well plate. 5 μl of the collected plasma was added to an aqueous solution (95 μl/well) comprises 25 mM Tris-HCl, 140 mM sodium chloride, 10 mM potassium-chloride, 1% bovine serum albumin, and 0.01 mM Gly-Pro-AMC (Bachem), and incubated at room temperature for 20 minutes. The fluorescence intensity (excitation 355 nm/emission 460 nm) of each well was measured (ARVO, Perkin Elmer).
The fluorescent intensity of the well, to which was added the plasma collected from the control group, was 100%. Based on it, the DPP-IV activity of the plasma collected from the test compound administered mice was calculated, and the activity difference between the control group and the test group was obtained. This indicated the inhibition in the test group.

[3] = 0.5 hour, read-out: Inhibitory Rate after 0.5 Hour from Administration
[4] = 12 hours, read-out: Inhibitory Rate after 12 Hours from Administration

T2 sequence (P28843 38-760 limits assumed): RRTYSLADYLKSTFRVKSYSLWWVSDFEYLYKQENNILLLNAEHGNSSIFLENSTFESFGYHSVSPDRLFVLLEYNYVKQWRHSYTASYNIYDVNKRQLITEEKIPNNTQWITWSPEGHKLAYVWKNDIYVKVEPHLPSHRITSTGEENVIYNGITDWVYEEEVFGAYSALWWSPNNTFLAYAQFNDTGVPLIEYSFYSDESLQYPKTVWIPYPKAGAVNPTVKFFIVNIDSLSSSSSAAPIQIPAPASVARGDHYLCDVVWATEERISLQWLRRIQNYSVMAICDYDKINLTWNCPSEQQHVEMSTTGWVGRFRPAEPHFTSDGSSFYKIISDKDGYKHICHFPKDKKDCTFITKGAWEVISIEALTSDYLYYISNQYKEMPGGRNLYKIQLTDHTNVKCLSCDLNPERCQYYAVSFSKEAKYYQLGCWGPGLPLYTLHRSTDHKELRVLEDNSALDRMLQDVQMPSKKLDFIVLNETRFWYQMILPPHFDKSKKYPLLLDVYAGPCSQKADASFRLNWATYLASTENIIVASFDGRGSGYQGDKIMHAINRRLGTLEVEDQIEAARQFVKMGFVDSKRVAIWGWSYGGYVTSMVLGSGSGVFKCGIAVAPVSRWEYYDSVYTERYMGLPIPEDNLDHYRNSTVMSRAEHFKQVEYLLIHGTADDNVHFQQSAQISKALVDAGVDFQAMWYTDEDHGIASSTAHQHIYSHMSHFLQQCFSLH
T1 sequence (P22411 whole entry): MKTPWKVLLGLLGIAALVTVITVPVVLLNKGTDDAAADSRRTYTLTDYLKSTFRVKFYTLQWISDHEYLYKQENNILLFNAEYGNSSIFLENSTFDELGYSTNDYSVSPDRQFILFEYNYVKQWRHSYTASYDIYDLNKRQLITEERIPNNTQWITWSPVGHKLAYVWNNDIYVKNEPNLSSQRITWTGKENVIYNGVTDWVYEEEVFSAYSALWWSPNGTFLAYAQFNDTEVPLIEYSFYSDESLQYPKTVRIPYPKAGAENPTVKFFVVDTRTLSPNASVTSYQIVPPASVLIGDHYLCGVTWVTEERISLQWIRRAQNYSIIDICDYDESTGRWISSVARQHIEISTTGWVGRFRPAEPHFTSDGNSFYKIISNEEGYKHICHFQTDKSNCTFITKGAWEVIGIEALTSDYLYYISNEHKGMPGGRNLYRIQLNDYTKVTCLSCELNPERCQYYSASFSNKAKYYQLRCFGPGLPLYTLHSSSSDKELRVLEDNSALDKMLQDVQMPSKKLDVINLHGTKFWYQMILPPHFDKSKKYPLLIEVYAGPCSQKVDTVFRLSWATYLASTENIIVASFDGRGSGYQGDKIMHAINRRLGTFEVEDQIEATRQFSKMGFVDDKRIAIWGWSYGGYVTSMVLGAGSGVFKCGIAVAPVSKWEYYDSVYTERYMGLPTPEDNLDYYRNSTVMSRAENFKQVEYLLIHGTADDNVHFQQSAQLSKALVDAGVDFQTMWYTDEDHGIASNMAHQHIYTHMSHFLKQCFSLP

SMILES	IC50 [1]	BA, compound measured = compound tested (PK test in rats)	AUC(0-inf) (PK test in rats)	AUC(0-inf) ([2]; cynomolgus monkey, oral 3 mg/kg, plasma, read-out: AUC0→∞, compound measured = compound tested)	BA, compound measured = compound tested ([2]; listed as compound X)	BA, compound measured = compound tested [2]	inhibition at 10 mg/kg (plasma DPP-IV activity; [3])	inhibition at 10 mg/kg (plasma DPP-IV activity; [4])	Increase of AUC (sum of tested compound and compound X in plasma) compared with AUC when compound X was administered (PK test in rats; rats, oral administration)	AUC0→∞, compound measured = compound tested ([2]; oral 3 mg/kg, plasma)
CC1(NCC(=O)N2C[C@@H](F)C[C@H]2C#N)CCN(C(=O)CO)CC1.Cl [Compound X, (2S,4S)-4-fluoro-1-{[(1-glycoloyl-4-methylpiperidin-4-yl)amino]acetyl}pyrrolidine-2-carbonitrile monohydrochloride]	15 nM	16%	138 ng·h/mL	278 ± 104 ng·h/mL	13%	13 ± 5%	–	–	–	–
COCC(=O)N1CCC(NCC(=O)N2CCC[C@H]2C#N)CC1 [Compound Y]	–	–	–	–	–	–	90%	33%	–	–
CC(=O)OCC(=O)N1CCC(C)(NCC(=O)N2C[C@@H](F)C[C@H]2C#N)CC1 [Example 1, 2-[4-({2-[(2S,4S)-2-cyano-4-fluoropyrrolidin-1-yl]-2-oxoethyl}amino)-4-methylpiperdin-1-yl]-2-oxoethyl acetate monofumarate]	15 nM	77%	43 ng·h/mL	–	–	–	95%	84%	about fourfold	not detected
